# Results reported in article PMC7552967, “Anti-Melanoma Activities of Artemisone and Prenylated Amino-Artemisinins in Combination With Known Anticancer Drugs” (Frontiers in Pharmacology, 2020).
# Columns and labels:
# [1] = test system: UACC62 melanoma cells; assay: Sulforhodamine B (SRB) growth inhibition assay, UACC62; type: cell-based; conditions: Homo sapiens, UACC-62, mean ± SD
# Text: (§1) The human cell lines TK10 (human kidney adenocarcinoma), UACC62 (human melanoma) and MCF7 (human breast adenocarcinoma) were obtained from the National Cancer Institute (NCI) as part of a panel widely studied for drug screening and molecular target identification. Melanoma (A375) and human embryonic kidney (HEK293) were acquired from the American Type Culture Collection; ATCC® CRL-1619™ and ATCC® CRL-1573™ respectively. The nontumorigenic human immortalized keratinocyte (HaCaT) cells were a kind donation by the School of Anatomical Sciences, Faculty of Health Sciences, University of the Witwatersrand, South Africa. […]
# (§2) The growth inhibitory effects of the compounds were tested in the 3-cell line panel consisting of TK10 (renal), UACC62 (melanoma) and MCF7 (breast) cancer cells by Sulforhodamine B (SRB) assay. In addition, activity was also evaluated against HEK293 cells with the 3-(4,5-dimethylthiazol-2-yl)-2,5-diphenyl tetrazolium bromide (MTT) assay ([Mosmann, 1983]). […] The results were expressed as half maximal inhibitory concentrations (IC50) as described before ([Lewies et al., 2018]). […] After incubation, cell viability was determined using a microplate reader (BioTek®, Vermont, USA) at an excitation wavelength of 560 nm and emission wavelength of 630 nm with DMSO measured as a blank. […] Using the MTT assay data, IC50 values were calculated using GraphPad Prism 8. […]
# [2] = test system: MCF-7 breast cancer cells; assay: Sulforhodamine B (SRB) growth inhibition assay, MCF7; type: cell-based; conditions: Homo sapiens, mean ± SD
# Text: as §1, §2
# [3] = test system: TK10 renal cancer cells; assay: Sulforhodamine B (SRB) growth inhibition assay, TK10; type: cell-based; conditions: Homo sapiens, TK-10, mean ± SD
# Text: as §1, §2
# [4] = test system: A375 melanoma cells; assay: Intracellular ROS, DCFH-DA assay, A375; type: cell-based, human; conditions: A375, 12 h treatment; result in words
# Protocol: HaCat and A375 cells were seeded at 25,000 cells/well in 96-well plates (Black plate, Clear bottom, Corning, Costar®, NY, USA) and incubated until cells were ~90% confluent. Serum-free DMEM without phenol red (Thermo Fisher Scientific, Gibco, Carlsbad, CA, USA) was used for all experiments. Cells were exposed to compounds or H2O2 (500 µM) for 12 h. Cell staining with ROS fluorescent indicator 2’,7’-dichlorodihydrofluorescein diacetate (DCFH-DA) was performed 1.5 h before the end of the 12-h exposure time. A kinetic analysis was then performed at 37°C using a microplate reader (SpectraMax® ParadigmTM Molecular Devices, Sunnyvale, CA, USA) by measuring the DCF fluorescence (excitation 485 nm and emission 535 nm) every 10 min for 1 h. […] The Bradford assay (Coomassie blue colorimetric method) was then performed in order to determine the relative amount of protein per well, as an indication of cell number per well, and all fluorescence measurements were normalized relative to the cell number. The background fluorescence produced by blank medium controls and unstained but treated cell controls were subtracted from DCFH-DA stained cells. The DCF fluorescence measured at the beginning of the analysis (time 0) was subtracted from the DCF fluorescence at the indicated times for the kinetic analysis (results not shown). […]
# The levels of intracellular ROS were determined using the DCFH-DA assay. […]
SMILES,IC50 [1],IC50 [2],IC50 [3],Intracellular ROS (DCF fluorescence fold change vs untreated control) [4]
"C[C@H]1[C@H](N2CCS(=O)(=O)CC2)O[C@@H]2O[C@@]3(C)CC[C@H]4[C@H](C)CC[C@@H]1[C@@]24OO3 [Artemisone 4, artemisone]",32700 ± 3470 nM,2750 ± 790 nM,> 100000 nM,–
"CC(C)=CCC/C(C)=C/CC/C(C)=C/CN1CCN([C@@H]2O[C@@H]3O[C@@]4(C)CC[C@H]5[C@H](C)CC[C@@H]([C@H]2C)[C@@]35OO4)CC1 [Farnesylpiperazine-DHA 7, farnesylpiperazine-DHA]",2150 ± 790 nM,1560 ± 510 nM,3000 ± 670 nM,not significantly higher than the untreated control
"CC(C)=CCC/C(C)=C/CN1CCN([C@@H]2O[C@@H]3O[C@@]4(C)CC[C@H]5[C@H](C)CC[C@@H]([C@H]2C)[C@@]35OO4)CC1 [Geranylpiperazine-DHA 6, geranylpiperazine-DHA]",–,–,–,not significantly higher when compared to the untreated control
